Laboratory results published in patent publication US9828338B2, “Carbamate derivatives of lactam based N-acylethanolamine acid amidase (NAAA) inhibitors” (The Regents of the University of California, priority 2013, dated 2017).

Molecular target: T1, r-NAAA (Rattus norvegicus, UniProt Q5KTC7)
T1 construct: Lysosomal NAAA protein preparation was obtained by homogenizing male Sprague-Dawley rat lungs; tissue Charles River (animals); host or cells: male Sprague-Dawley rat lung, soluble lysosomal fraction
T1 sequence (Q5KTC7 34-362): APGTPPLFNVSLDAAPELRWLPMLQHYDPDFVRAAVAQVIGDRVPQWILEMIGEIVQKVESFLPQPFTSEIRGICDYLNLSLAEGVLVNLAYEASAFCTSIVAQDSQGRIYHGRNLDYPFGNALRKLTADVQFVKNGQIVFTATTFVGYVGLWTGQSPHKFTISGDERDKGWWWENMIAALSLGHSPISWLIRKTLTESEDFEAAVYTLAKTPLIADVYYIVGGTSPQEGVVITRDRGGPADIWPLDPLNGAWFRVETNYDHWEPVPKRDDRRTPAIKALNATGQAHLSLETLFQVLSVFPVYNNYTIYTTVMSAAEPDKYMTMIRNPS
Experiment: UPLC/MS r-NAAA assay
Type: biochemical
Conditions: not given
Description: Lysosomal NAAA protein preparation was obtained by homogenizing male Sprague-Dawley rat lungs (Charles River) in 20 mM Tris-HCl buffer pH 7.4 containing 0.32M sucrose. […] Supernatants were then centrifuged at 12,000 xg for 30 min at 4° C. Pellets were then resuspended in PBS pH 7.4 and subjected to a freeze/thaw cycle at −80° C. The suspension was finally centrifuged at 105,000×g for 1 h at 4° C. The supernatant was then used in the enzymatic assay.
NAAA protein preparation was pre-incubated with various concentrations of test compounds or vehicle control in 100 mM NaH2PO4/Citrate buffer, 1% Triton-X, 3 mM DTT (pH 4.5) for 30 min at 37° C. Samples were then incubated with heptadecenoylethanolamide (50 μM, Avanti Polar Lipids) at 37° C. for 30 min. The reaction was terminated by addition of cold methanol containing heptadecanoic acid (NuCheck Prep) as internal standard. Samples were then analyzed by UPLC/MS (Acquity, Waters). […] The column temperature was 40° C. Electrospray ionization was in the negative mode, capillary voltage was 0.5 kV, cone voltage was […], desolvation temperature was 500° C. N2 was used as drying gas at a flow rate of 1000 L/hour and a temperature of 500° C. […] Calibration curves were generated using commercial heptadecenoic acid (NuCheck Prep) Inhibition of NAAA activity was calculated as reduction of heptadecenoic acid in the samples compared to vehicle controls. IC50 values were calculated by non-linear regression analysis of log [concentration]/inhibition curves using GraphPad Prism 5 (GraphPad Software Inc., CA—USA) applying a standard slope curve fitting.

| Structure (SMILES) | IC50 [nM] |
| --- | --- |
| O=C(N[C@H]1CNC1=O)OC1CCC(Cc2ccccc2)CC1 (mixture of isomers) [Example 7, (1s,4R) and (1r,4S)-(4-Benzylcyclohexyl)-N-[(3S)-2-oxoazetidin-3-yl]-carbamate] | 6600 |
| CC(CCCCc1ccccc1)OC(=O)N[C@H]1CNC1=O (mixture of isomers) [Example 15, [(1S)- and (1R)-(1-Methyl-5-phenyl-pentyl)]-N-[(3S)-2-oxoazetidin-3-yl]-carbamate] | 3900 |
| CCCCCCCOC(=O)N[C@@H]1CNC1=O [Example 2, Heptyl-N-[(3R)-2-oxoazetidin-3-yl]-carbamate] | 66000 |
| O=C(N[C@@H]1CNC1=O)OCCCCCc1ccccc1 [Example 4, 5-Phenylpentyl-N-[(3R)-2-oxoazetidin-3-yl]-carbamate] | 18700 |
| O=C(N[C@H]1CNC1=O)OC1CCC(=Cc2ccccc2)CC1 (stereo partly drawn) [Example 8, (R,E) and (S,Z)-(4-Benzylidenecyclohexyl)-N-[(3S)-2-oxoazetidin-3-yl]-carbamate] | 5700 |
| O=C(N[C@H]1CNC1=O)OCC/C=C/c1ccccc1 [Example 11, [(E)-4-Phenylbut-3-enyl]-N-[(3S)-2-oxoazetidin-3-yl]-carbamate] | 6620 |
| Cc1cccc(C)c1CCCCOC(=O)N[C@H]1CNC1=O [Example 14, 4-(2,6-Dimethylphenyl)-butyl-N-[(3S)-2-oxoazetidin-3-yl]-carbamate] | 8100 |
| CC(C)(CCCCc1ccccc1)OC(=O)N[C@H]1CNC1=O [Example 16, (1,1-Dimethyl-5-phenyl-pentyl)-N-[(3S)-2-oxoazetidin-3-yl]-carbamate] | 8000 |
| Cc1ccccc1CCCCOC(=O)N[C@H]1CNC1=O [Example 29, 4-(o-Tolyl)-butyl-N-[(3S)-2-oxoazetidin-3-yl]-carbamate] | 2000 |
| O=C(N[C@H]1CNC1=O)Oc1ccc(Cc2ccccc2)cc1 [Example 33, (4-Benzylphenyl)-N-[(3S)-2-oxoazetidin-3-yl]-carbamate] | 21000 |
| O=C(N[C@H]1CNC1=O)OCCc1ccc(-c2ccccc2)cc1 [Example 36, 2-(4-Phenylphenyl)-ethyl-N-[(3S)-2-oxoazetidin-3-yl]-carbamate] | 5050 |
| O=C(N[C@H]1CNC1=O)OCCCCC1CCOCC1 [Example 48, 4-Tetrahydropyran-4-yl-butyl-N-[(3S)-2-oxoazetidin-3-yl]-carbamate] | 12600 |
| C[C@@H]1NC(=O)[C@H]1NC(=O)OCCCCCc1ccccc1 [Example 75, 5-Phenylpentyl-N-[(2S,3S)-2-methyl-4-oxo-azetidin-3-yl]-carbamate] | 2800 |

Now from value to compound:

| IC50 [nM] | Structure (SMILES) |
| --- | --- |
| 620 | O=C(N[C@H]1CNC1=O)OCCCCCc1ccccc1 [Example 3, 5-Phenylpentyl-N-[(3S)-2-oxoazetidin-3-yl]-carbamate] |
| 1600 | O=C(N[C@H]1CNC1=O)OCC/C=C\c1ccccc1 [Example 12, [(Z)-4-Phenylbut-3-enyl]-N-[(3S)-2-oxoazetidin-3-yl]-carbamate] |
| 40 | O=C(N[C@H]1CNC1=O)OCCCC1CCCCC1 [Example 18, 3-Cyclohexylpropyl-N-[(3S)-2-oxoazetidin-3-yl]-carbamate] |
| 58 | O=C(N[C@H]1CNC1=O)OCCCCCC1CCCCC1 [Example 19, 5-Cyclohexylpentyl-N-[(3S)-2-oxoazetidin-3-yl]-carbamate] |
| 48 | O=C(N[C@H]1CNC1=O)OCCCCC1CCCC1 [Example 20, 4-Cyclopentylbutyl-N-[(3S)-2-oxoazetidin-3-yl]-carbamate] |
| 1600 | CCCCCCOC(=O)N[C@H]1CNC1=O [Example 23, Hexyl-N-[(3S)-2-oxoazetidin-3-yl]-carbamate] |
| 16 | CCCCCCCCOC(=O)N[C@H]1CNC1=O [Example 24, Octyl-N-[(3S)-2-oxoazetidin-3-yl]-carbamate] |
| 46 | CCCCc1ccc(COC(=O)N[C@H]2CNC2=O)cc1 [Example 26, (4-Butylphenyl)-methyl-N-[(3S)-2-oxoazetidin-3-yl]-carbamate] |
| 1200 | O=C(N[C@H]1CNC1=O)OCc1cccc(Cc2ccccc2)c1 [Example 32, (3-Benzylphenyl)-methyl-N-[(3S)-2-oxoazetidin-3-yl]-carbamate] |
| 670 | O=C(N[C@H]1CNC1=O)OCCCCc1ccc(C(F)(F)F)cc1 [Example 38, 4-[4-(Trifluoromethyl)-phenyl]-butyl-N-[(3S)-2-oxoazetidin-3-yl]-carbamate] |
| 1000 | CCc1ccc(CCCCOC(=O)N[C@H]2CNC2=O)cc1 [Example 39, 4-(4-Ethylphenyl)-butyl-N-[(3S)-2-oxoazetidin-3-yl]-carbamate] |
| 510 | Cc1ccccc1-c1ccc(COC(=O)N[C@H]2CNC2=O)cc1 [Example 40, [4-(o-Tolyl)-phenyl]-methyl-N-[(3S)-2-oxoazetidin-3-yl]-carbamate] |
| 910 | Cc1ccccc1-c1ccc(COC(=O)N[C@H]2CNC2=O)cc1C [Example 41, [3-Methyl-4-(o-tolyl)-phenyl]-methyl-N-[(3S)-2-oxoazetidin-3-yl]-carbamate] |
| 620 | Cc1cccc(-c2ccc(COC(=O)N[C@H]3CNC3=O)cc2C)c1 [Example 42, [3-Methyl-4-(m-tolyl)-phenyl]-methyl-N-[(3S)-2-oxoazetidin-3-yl]-carbamate] |
| 870 | Cc1cccc(-c2ccc(COC(=O)N[C@H]3CNC3=O)cc2)c1 [Example 43, [4-(m-Tolyl)-phenyl]-methyl-N-[(3S)-2-oxoazetidin-3-yl]-carbamate] |
| 590 | Cc1cc(COC(=O)N[C@H]2CNC2=O)ccc1-c1ccccc1 [Example 44, (3-Methyl-4-phenyl-phenyl)-methyl-N-[(3S)-2-oxoazetidin-3-yl]-carbamate] |
| 1650 | O=C(N[C@H]1CNC1=O)OCCOCC1CCCCC1 [Example 49, 2-(Cyclohexylmethoxy)-ethyl-N-[(3S)-2-oxoazetidin-3-yl]-carbamate] |
| 770 | O=C(N[C@H]1CNC1=O)OCCOCCC1CCCCC1 [Example 51, 2-(2-Cyclohexylethoxy)-ethyl-N-[(3S)-2-oxoazetidin-3-yl]-carbamate] |
| 31 | O=C(N[C@H]1CNC1=O)OCc1ccc(C2CCCC2)cc1 [Example 55, (4-Cyclopentylphenyl)-methyl-N-[(3S)-2-oxoazetidin-3-yl]-carbamate] |
| 180 | CC(C)(C)c1ccc(COC(=O)N[C@H]2CNC2=O)cc1 [Example 57, (4-tert-Butylphenyl)-methyl-N-[(3S)-2-oxoazetidin-3-yl]-carbamate] |
| 160 | O=C(N[C@H]1CNC1=O)OCc1ccc(OC2CCCCC2)cc1 [Example 64, [4-(Cyclohexoxy)-phenyl]-methyl-N-[(3S)-2-oxoazetidin-3-yl]-carbamate] |

Same assay, conditions: @ 30 μM; read-out: r-NAAA UPLC/MS assay % inhib.

| inhibition at 30 µM [%] | Structure (SMILES) |
| --- | --- |
| 20 | C#CCCOC(=O)N[C@H]1CNC1=O [Example 65, But-3-ynyl-N-[(3S)-2-oxoazetidin-3-yl]-carbamate] |
| 35 | C[C@H]1NC(=O)[C@H]1NC(=O)OCCCCCc1ccccc1 [Example 79, 5-Phenylpentyl-N-[(2R,3S)-2-methyl-4-oxo-azetidin-3-yl]-carbamate] |

Same assay, conditions: @100 μM

| Structure (SMILES) | r-NAAA UPLC/MS assay (n.a.) |
| --- | --- |
| O=C(N[C@H]1CNC1=O)OCc1ccccc1C1CCCCC1 [Example 35, (2-Cyclohexylphenyl)-methyl-N-[(3S)-2-oxoazetidin-3-yl]-carbamate] | n.a. (n.a. = <10% inhib. @100 μM) |
| O=C(N[C@H]1CNC1=O)OCCCCc1ccccn1 [Example 37, 4-(2-Pyridyl)-butyl-N-[(3S)-2-oxoazetidin-3-yl]-carbamate] | n.a. (n.a. = <10% inhib. @100 μM) |
| C[C@H]1NC(=O)[C@H]1NC(=O)OCc1ccc(-c2ccccc2)cc1 [Example 77, (4-Phenylphenyl)-methyl-N-[(2R,3S)-2-methyl-4-oxo-azetidin-3-yl]-carbamate] | n.a. (n.a. = <10% inhib. @100 μM) |

Same assay, conditions: read-out: r-NAAA UPLC/MS assay % inhib.

| Structure (SMILES) | inhibition at 30 µM [%] | inhibition at 100 µM [%] |
| --- | --- | --- |
| O=C(N[C@H]1CNC1=O)OCc1ccc(-c2ccncc2)cc1 [Example 45, [4-(4-Pyridyl)-phenyl]-methyl-N-[(3S)-2-oxoazetidin-3-yl]-carbamate] | 48 | – |
| O=C(N[C@H]1CNC1=O)OCc1cccc(-c2ccccc2)c1 [Example 62, (3-Phenylphenyl)-methyl-N-[(3S)-2-oxoazetidin-3-yl]-carbamate] | 45 | – |
| C[C@H]1NC(=O)[C@H]1NC(=O)OCc1ccc(C2CCCCC2)cc1 [Example 78, (4-Cyclohexylphenyl)-methyl-N-[(2R,3S)-2-methyl-4-oxo-azetidin-3-yl]-carbamate] | – | 55 |
